Measurements: ChEMBL document CHEMBL3885881, “DrugMatrix”

Species on record: Rattus norvegicus
Experiment: DrugMatrix - Regimen: Daily Repeat
Assay type: toxicity, organism-based, Sprague-Dawley
Parameters: regimen Daily Repeat, gender Male, age 6-8 weeks
Conditions: in vivo, po, route oral GAVAGE, vehicle 100 % SALINE; for ABSOLUTE BASOPHIL / ABSOLUTE EOSINOPHIL / ABSOLUTE LYMPHOCYTE / ABSOLUTE MONOCYTE / ABSOLUTE SEGMENTED NEUTROPHIL / BASOPHIL / EOSINOPHIL / ERYTHROCYTE COUNT / HEMATOCRIT / HEMOGLOBIN / LEUKOCYTE COUNT / LYMPHOCYTE / MEAN CORPUSCULAR HEMOGLOBIN / MEAN CORPUSCULAR HEMOGLOBIN CONCENTRATION / MEAN CORPUSCULAR VOLUME / MONOCYTE / NEUTROPHIL / NUCLEATED RED BLOOD CELLS / PLATELET COUNT: tissue Blood; for ALANINE AMINOTRANSFERASE / ALBUMIN / ALKALINE PHOSPHATASE / ASPARTATE AMINOTRANSFERASE / BLOOD UREA NITROGEN / CARBON DIOXIDE / CHLORIDE / CHOLESTEROL / CREATINE PHOSPHOKINASE / CREATININE / GLUCOSE / LACTATE DEHYDROGENASE / LIPASE / PHOSPHORUS / POTASSIUM / SODIUM / TOTAL BILIRUBIN / TOTAL PROTEIN / URIC ACID: tissue Plasma
[1] = 0 mg/kg, 72 h, dose level Control, time 3 day
[2] = 0 mg/kg, 120 h, dose level Control, time 5 day
[3] = […], 72 h, dose 2.3 mg/Kg, dose level Low, time 3 day
[4] = […], 120 h, dose 2.3 mg/Kg, dose level Low, time 5 day

CC(CN1c2ccccc2Sc2ccccc21)N(C)C (configuration not stated) [PROMETHAZINE]
ABSOLUTE BASOPHIL [1]: 0 CELLS/uL | ABSOLUTE EOSINOPHIL [1]: 65.67 CELLS/uL | ABSOLUTE LYMPHOCYTE [1]: 17283.5 CELLS/uL | ABSOLUTE MONOCYTE [1]: 0 CELLS/uL | ABSOLUTE SEGMENTED NEUTROPHIL [1]: 1284.17 CELLS/uL | BASOPHIL [1]: 0% | EOSINOPHIL [1]: 0.33% | ERYTHROCYTE COUNT [1]: 5.46 x10E6/uL | HEMATOCRIT [1]: 34.28% | HEMOGLOBIN [1]: 13.78 G/DL | LEUKOCYTE COUNT [1]: 18.63 x10E3/uL | LYMPHOCYTE [1]: 92.67% | MEAN CORPUSCULAR HEMOGLOBIN [1]: 25.3 pg | MEAN CORPUSCULAR HEMOGLOBIN CONCENTRATION [1]: 40.22 G/DL | MEAN CORPUSCULAR VOLUME [1]: 62.87 fL | MONOCYTE [1]: 0% | NEUTROPHIL [1]: 7% | NUCLEATED RED BLOOD CELLS [1]: 0 /100WBC | PLATELET COUNT [1]: 1244.83 x10E3/uL | ALANINE AMINOTRANSFERASE [1]: 52.83 u/L | ALBUMIN [1]: 4 G/DL | ALKALINE PHOSPHATASE [1]: 327.67 u/L | ASPARTATE AMINOTRANSFERASE [1]: 78.83 u/L | BLOOD UREA NITROGEN [1]: 13.83 mg/dL | CARBON DIOXIDE [1]: 26.67 mmol/L | CHLORIDE [1]: 99.67 MEQ/L | CHOLESTEROL [1]: 69 mg/dL | CREATINE PHOSPHOKINASE [1]: 350.17 u/L | CREATININE [1]: 0.21 mg/dL | GLUCOSE [1]: 173.83 mg/dL | LACTATE DEHYDROGENASE [1]: 168.33 u/L | LIPASE [1]: 11 u/L | PHOSPHORUS [1]: 12.7 mg/dL | POTASSIUM [1]: 6.88 MEQ/L | SODIUM [1]: 141.68 MEQ/L | TOTAL BILIRUBIN [1]: 0.22 mg/dL | TOTAL PROTEIN [1]: 6.02 G/DL | URIC ACID [1]: 1.9 mg/dL | ABSOLUTE BASOPHIL [2]: 0 CELLS/uL | ABSOLUTE EOSINOPHIL [2]: 14.83 CELLS/uL | ABSOLUTE LYMPHOCYTE [2]: 12880 CELLS/uL | ABSOLUTE MONOCYTE [2]: 90.67 CELLS/uL | ABSOLUTE SEGMENTED NEUTROPHIL [2]: 864.5 CELLS/uL | BASOPHIL [2]: 0% | EOSINOPHIL [2]: 0.17% | ERYTHROCYTE COUNT [2]: 5.83 x10E6/uL | HEMATOCRIT [2]: 35.87% | HEMOGLOBIN [2]: 14 G/DL | LEUKOCYTE COUNT [2]: 13.85 x10E3/uL | LYMPHOCYTE [2]: 92.5% | MEAN CORPUSCULAR HEMOGLOBIN [2]: 24.03 pg | MEAN CORPUSCULAR HEMOGLOBIN CONCENTRATION [2]: 39.03 G/DL | MEAN CORPUSCULAR VOLUME [2]: 61.53 fL | MONOCYTE [2]: 0.67% | NEUTROPHIL [2]: 6.67% | NUCLEATED RED BLOOD CELLS [2]: 0 /100WBC | PLATELET COUNT [2]: 1041.83 x10E3/uL | ALANINE AMINOTRANSFERASE [2]: 56 u/L | ALBUMIN [2]: 4.47 G/DL | ALKALINE PHOSPHATASE [2]: 319 u/L | ASPARTATE AMINOTRANSFERASE [2]: 89.17 u/L | BLOOD UREA NITROGEN [2]: 15.2 mg/dL | CARBON DIOXIDE [2]: 24 mmol/L | CHLORIDE [2]: 104.4 MEQ/L | CHOLESTEROL [2]: 69.5 mg/dL | CREATINE PHOSPHOKINASE [2]: 295.83 u/L | CREATININE [2]: 0.21 mg/dL | GLUCOSE [2]: 124.33 mg/dL | LACTATE DEHYDROGENASE [2]: 325.5 u/L | LIPASE [2]: 14.67 u/L | PHOSPHORUS [2]: 11.45 mg/dL | POTASSIUM [2]: 6.74 MEQ/L | SODIUM [2]: 151.4 MEQ/L | TOTAL BILIRUBIN [2]: 0.23 mg/dL | TOTAL PROTEIN [2]: 6.45 G/DL | URIC ACID [2]: 1.18 mg/dL | ABSOLUTE BASOPHIL [3]: 0 CELLS/uL | ABSOLUTE EOSINOPHIL [3]: 137 CELLS/uL | ABSOLUTE LYMPHOCYTE [3]: 14557.33 CELLS/uL | ABSOLUTE MONOCYTE [3]: 165.33 CELLS/uL | ABSOLUTE SEGMENTED NEUTROPHIL [3]: 1673.67 CELLS/uL | BASOPHIL [3]: 0% | EOSINOPHIL [3]: 1% | ERYTHROCYTE COUNT [3]: 5.52 x10E6/uL | HEMATOCRIT [3]: 34.93% | HEMOGLOBIN [3]: 13.67 G/DL | LEUKOCYTE COUNT [3]: 16.53 x10E3/uL | LYMPHOCYTE [3]: 88.33% | MEAN CORPUSCULAR HEMOGLOBIN [3]: 24.8 pg | MEAN CORPUSCULAR HEMOGLOBIN CONCENTRATION [3]: 39.13 G/DL | MEAN CORPUSCULAR VOLUME [3]: 63.3 fL | MONOCYTE [3]: 1% | NEUTROPHIL [3]: 9.67% | NUCLEATED RED BLOOD CELLS [3]: 0 /100WBC | PLATELET COUNT [3]: 1282.33 x10E3/uL | ALANINE AMINOTRANSFERASE [3]: 48 u/L | ALBUMIN [3]: 4.07 G/DL | ALKALINE PHOSPHATASE [3]: 265 u/L | ASPARTATE AMINOTRANSFERASE [3]: 76 u/L | BLOOD UREA NITROGEN [3]: 13.67 mg/dL | CARBON DIOXIDE [3]: 25.33 mmol/L | CHLORIDE [3]: 102 MEQ/L | CHOLESTEROL [3]: 62.67 mg/dL | CREATINE PHOSPHOKINASE [3]: 306.33 u/L | CREATININE [3]: 0.2 mg/dL | GLUCOSE [3]: 164.67 mg/dL | LACTATE DEHYDROGENASE [3]: 197.33 u/L | LIPASE [3]: 10.33 u/L | PHOSPHORUS [3]: 11.33 mg/dL | POTASSIUM [3]: 6.26 MEQ/L | SODIUM [3]: 142.7 MEQ/L | TOTAL BILIRUBIN [3]: 0.2 mg/dL | TOTAL PROTEIN [3]: 5.87 G/DL | URIC ACID [3]: 1.63 mg/dL | ABSOLUTE BASOPHIL [4]: 0 CELLS/uL | ABSOLUTE EOSINOPHIL [4]: 47.67 CELLS/uL | ABSOLUTE LYMPHOCYTE [4]: 14175.67 CELLS/uL | ABSOLUTE MONOCYTE [4]: 210 CELLS/uL | ABSOLUTE SEGMENTED NEUTROPHIL [4]: 1533.33 CELLS/uL | BASOPHIL [4]: 0% | EOSINOPHIL [4]: 0.33% | ERYTHROCYTE COUNT [4]: 5.54 x10E6/uL | HEMATOCRIT [4]: 35.6% | HEMOGLOBIN [4]: 13.8 G/DL | LEUKOCYTE COUNT [4]: 15.97 x10E3/uL | LYMPHOCYTE [4]: 89% | MEAN CORPUSCULAR HEMOGLOBIN [4]: 24.93 pg | MEAN CORPUSCULAR HEMOGLOBIN CONCENTRATION [4]: 38.77 G/DL | MEAN CORPUSCULAR VOLUME [4]: 64.27 fL | MONOCYTE [4]: 1.33% | NEUTROPHIL [4]: 9.33% | NUCLEATED RED BLOOD CELLS [4]: 0 /100WBC | PLATELET COUNT [4]: 1323 x10E3/uL | ALANINE AMINOTRANSFERASE [4]: 48.67 u/L | ALBUMIN [4]: 4.2 G/DL | ALKALINE PHOSPHATASE [4]: 312 u/L | ASPARTATE AMINOTRANSFERASE [4]: 76.33 u/L | BLOOD UREA NITROGEN [4]: 12.67 mg/dL | CARBON DIOXIDE [4]: 22 mmol/L | CHLORIDE [4]: 103.67 MEQ/L | CHOLESTEROL [4]: 67.67 mg/dL | CREATINE PHOSPHOKINASE [4]: 212 u/L | CREATININE [4]: 0.17 mg/dL | GLUCOSE [4]: 187 mg/dL | LACTATE DEHYDROGENASE [4]: 113 u/L | LIPASE [4]: 9 u/L | PHOSPHORUS [4]: 11.2 mg/dL | POTASSIUM [4]: 6.01 MEQ/L | SODIUM [4]: 144.6 MEQ/L | TOTAL BILIRUBIN [4]: 0.17 mg/dL | TOTAL PROTEIN [4]: 6.07 G/DL | URIC ACID [4]: 2.13 mg/dL
